From patent US7125997B2, “Differential tumor cytotoxicity compounds and compositions” (IRM LLC, priority 2002, dated 2006)

Tested on: Human SW620 colon tumor cells
Assay: alamarBlue cell viability (cytotoxicity) assay, SW620
Assay type: cell-based
Conditions: SW-620, 48 h, SW620 cell line, two days incubation, alamarBlue fluorescence
Experimental: Human SW620 colon tumor cells are cultivated using 10% FCS/DMEM (Invitrogen) medium. The cells are plated into 384 well plates at a density of 8000 cells per well in a volume of 50 μL. The cells are placed in a 37° C. incubator and allowed to adhere overnight. Test compounds are added to the cells in a volume of 500 nL (final DMSO concentration in assay is 1%). Serial dilutions of the test compound are added (the top concentration of compound is 10 micromolar (final assay concentration) followed by 11 two fold dilutions. The cells are incubated for a further two days. A solution (50 μL) comprised of 20% alamarBlue™ (Biosource International, Inc.) and 80% assay medium is added to each well and the plates are incubated at 37° C. for a further 4 hours. The plates are read by fluorescence (530 nm excitation, 580 nm emission) on an Acquest reader (LJL Biosystems). The IC50 is defined as the concentration of a test compound at the end of the incubation period, which leads to 50% of cell viability per well compared with the control (concentration at semi-maximum inhibition of cell growth).

O=C(Nc1ccc(N2CCOCC2)cc1)c1ccc(Nc2ccc(OC(F)(F)F)cc2)cc1 [Example 1, N-(4-Morpholin-4-yl-phenyl)-4-(4-trifluoromethoxy-phenylamino)-benzamide]
IC50: 26 nM
